These results are taken from patent publication US12297296B2, “Nano small peptide and its use in preparation of drugs for treating and preventing fundus vascular diseases” (FUTU Biotech Co., Ltd., priority 2021, dated 2025).

A short description of this data set: DLS particle size and zeta potential of nanoparticles. It counts as physicochemical. The conditions noted are these: zeta sizer, 25° C. As to the method: First, FG and FH nanoparticle solutions with a concentration of 20 μM were prepared as follows. 0.01 mmol of FG (or FH) was weighed and dissolved in 1 mL of DMSO solution, and then diluted into 5 folds to a concentration of 2 mM, thus obtaining mother solution A. 10 μL of mother solution A was quickly added to 1 mL of water, and the resulting solution was then vortexed for 30 s to obtain a nanoparticle solution. Second, samples were made. 10 ul of FG (or FH) solution was added dropwise onto a copper mesh for 5 min, and the excess solution was removed with filter paper. 10 μL of uranyl acetate stain was added dropwise for 5 min, and the excess stain was removed with filter paper. Washing with 10 μl of deionized water was carried out once. The samples were dried in vacuum overnight. Finally, transmission electron microscopy observations were performed on an HT-7700 transmission electron microscope (Hitachi, Tokyo, Japan). Scale bar was 200 nm.
The particle size and zeta potential of FH and FG nanoparticles were measured with a zeta sizer (Nano ZZ90, Malvern, UK) at 25° C.

Where a SMILES comes first, the peptide text is derived from it. [ ]: non-standard residue; d: D form. The star is where a group is joined. ξ: configuration not given here. Palmitoyl = CCCCCCCCCCCCCCCC(=O)*; ξF = NC(Cc1ccccc1)C(=O)O

`CCCCCCCCCCCCCCCC(=O)NC(Cc1ccccc1)C(=O)N[C@@H](Cc1ccccc1)C(=O)N[C@H](C(=O)N[C@@H](CC(C)C)C(=O)N[C@@H](CCCCN)C(=O)N[C@@H](CCCCN)C(=O)N[C@@H](CCC(N)=O)C(=O)N[C@@H](CCCCN)C(=O)N[C@@H](CCCNC(=N)N)C(=O)N1CCC[C@H]1C(=O)N[C@@H](CCCNC(=N)N)C(=O)N[C@@H](Cc1c[nH]cn1)C(=O)O)C(C)C` (stereo in doubt) [FH, hexadecanoyl-FFVLK-KQKRPRH]: the “charge (zeta potential)” value was “+40.4 mV” and the particle diameter was determined as 54.43±2.8 nm.

As for `CCCCCCCCCCCCCCCC(=O)NC(Cc1ccccc1)C(=O)N[C@@H](Cc1ccccc1)C(=O)N[C@H](C(=O)N[C@@H](CC(C)C)C(=O)N[C@@H](CCCCN)C(=O)N[C@@H](CCCCN)C(=O)N[C@@H](CC(N)=O)C(=O)N[C@@H](CCCCN)C(=O)N[C@@H](C)C(=O)N[C@@H](C)C(=O)N[C@@H](CCCCN)C(=O)NCC(=O)O)C(C)C` (stereo partly shown) [FG] (Palmitoyl-[ξF]FVLKKNKAAKG-OH), the “charge (zeta potential)” value is “+44.8 mV” and the particle diameter is 57.67±2.6 nm.
